The values that follow come from PubChem BioAssay AID330 (DTP/NCI, 2004).

Where “and” joins values, the source holds several entries; their conditions need not be identical. Equal values may be shown once. Toxic doses and inconclusive results are not listed.

The experiment relates to P388 leukemia ip, CD2F1 mice, survival T/C. The experiment can be described thus: NCI In Vivo Anticancer Drug Screen. Data for tumor model P388 Leukemia (intraperitoneal) in CD2F1 (CDF1) mice. The note with it: endpoint: median survival time, higher = longer survival. In a few lines:
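Mice carrying the transplanted tumor received test compound or vehicle. Survival was recorded in each group, and the value is the treated-group measurement divided by that of the vehicle-treated control group.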

[1] abbreviates: dose: 50.0 mg/kg/injection, schedule: Q01DX009 (ip), vehicle: saline with Tween-80.
The mark [2] stands for this setting: dose: 200.0 mg/kg/injection, schedule: Q01DX009 (ip), vehicle: saline with Tween-80.
The mark [3] stands for this setting: dose: 400.0 mg/kg/injection, schedule: Q01DX009 (ip), vehicle: saline with Tween-80.
Where [4] appears, read: dose: 50.0 mg/kg/injection, schedule: Q01DX009 (ip), vehicle: saline.
Where [5] appears, read: dose: 100.0 mg/kg/injection, schedule: Q01DX009 (ip), vehicle: saline.
Setting [6] is: dose: 200.0 mg/kg/injection, schedule: Q01DX009 (ip), vehicle: saline.
Where [7] appears, read: dose: 12.5 mg/kg/injection, schedule: Q01DX009 (ip), vehicle: saline.
Setting [8] is: dose: 25.0 mg/kg/injection, schedule: Q01DX009 (ip), vehicle: saline.
The mark [9] stands for this setting: dose: 50.0 mg/kg/injection, schedule: Q04DX003 (ip), vehicle: saline.
[10] abbreviates: dose: 50.0 mg/kg/injection, schedule: Q01DX009 (ip), vehicle: Klucel (hydroxypropylcellulose) (HPC).
[11] abbreviates: dose: 100.0 mg/kg/injection, schedule: Q01DX009 (ip), vehicle: Klucel (hydroxypropylcellulose) (HPC).
Setting [12] is: dose: 200.0 mg/kg/injection, schedule: Q01DX009 (ip), vehicle: Klucel (hydroxypropylcellulose) (HPC).
Setting [13] is: dose: 100.0 mg/kg/injection, schedule: Q04DX003 (ip), vehicle: saline.
[14] abbreviates: dose: 200.0 mg/kg/injection, schedule: Q04DX003 (ip), vehicle: saline.

For the molecule `CCOC(=O)c1ccc(NC(=O)OCc2ccccc2)cc1`, the T/C under setting [1] was 91 % of control; the T/C (dose: 100.0 mg/kg/injection, schedule: Q01DX009 (ip), vehicle: saline with Tween-80) was 86 % of control; the T/C under setting [2] was 96 % of control; the T/C under setting [3] is 107 % of control.
On to `CC(=O)Oc1ccc(C2c3c(n(C(C)=O)c4ccccc34)C(=O)NN2C(C)=O)cc1` (stereo not drawn), for which the T/C is 100 % of control (dose: 50.0 mg/kg/injection, schedule: Q01DX005 (ip), vehicle: Klucel (hydroxypropylcellulose) (HPC)); 109 % of control (dose: 100.0 mg/kg/injection, schedule: Q01DX005 (ip), vehicle: Klucel (hydroxypropylcellulose) (HPC)); 112 % of control (dose: 200.0 mg/kg/injection, schedule: Q01DX005 (ip), vehicle: Klucel (hydroxypropylcellulose) (HPC)).
For `ClC1=C(Cl)C2(Cl)C3C(c4ccc(I)cc4C4C3C3(Cl)C(Cl)=C(Cl)C4(Cl)C3(Cl)Cl)C1(Cl)C2(Cl)Cl` (stereo not drawn), the T/C under setting [4] is 105 % of control, the T/C under setting [5] was 108 % of control and the T/C under setting [6] is 105 % of control.
Consider `O=C1CCCCC(=O)Nc2ccc3nc4ccccc4c(c3c2)SCCCCCCCCSc2c3ccccc3nc3ccc(cc23)N1`, for which the T/C is 101 % of control (dose: 60.0 mg/kg/injection, schedule: Q01DX005 (ip), vehicle: saline with Tween-80); 110 % of control (dose: 120.0 mg/kg/injection, schedule: Q01DX005 (ip), vehicle: saline with Tween-80); 91 % of control (dose: 240.0 mg/kg/injection, schedule: Q01DX005 (ip), vehicle: saline with Tween-80).
In the case of `NC(CSCCNc1ccc([N+](=O)[O-])cc1[N+](=O)[O-])C(=O)O` (stereo not drawn), the T/C by setting is: (dose: 25.0 mg/kg/injection, schedule: Q04DX003 (ip), vehicle: Klucel (hydroxypropylcellulose) (HPC)) 99 % of control; (dose: 50.0 mg/kg/injection, schedule: Q04DX003 (ip), vehicle: Klucel (hydroxypropylcellulose) (HPC)) 100 % of control; (dose: 100.0 mg/kg/injection, schedule: Q04DX003 (ip), vehicle: Klucel (hydroxypropylcellulose) (HPC)) 89 % of control; (dose: 200.0 mg/kg/injection, schedule: Q04DX003 (ip), vehicle: Klucel (hydroxypropylcellulose) (HPC)) 99 % of control.
Regarding `O=C(O)C(O)CBr` (stereo not drawn), the T/C is, setting by setting: under setting [7], 100 % of control; under setting [8], 95 % of control; (dose: 25.0 mg/kg/injection, schedule: Q04DX003 (ip), vehicle: saline) 91 % of control; under setting [4], 95 % of control; under setting [9], 87 % of control.
`c1ccc(Cc2ncnc3nc[nH]c23)cc1`: the T/C is, setting by setting: (dose: 2.5 mg/kg/injection, schedule: Q01DX009 (ip), vehicle: saline with Tween-80) 111 % of control; (dose: 5.0 mg/kg/injection, schedule: Q01DX009 (ip), vehicle: saline with Tween-80) 111 % of control; (dose: 10.0 mg/kg/injection, schedule: Q01DX009 (ip), vehicle: saline with Tween-80) 111 % of control; (dose: 20.0 mg/kg/injection, schedule: Q01DX009 (ip), vehicle: saline with Tween-80) 105 % of control and 107 % of control and 110 % of control; (dose: 40.0 mg/kg/injection, schedule: Q01DX009 (ip), vehicle: saline with Tween-80) 98 % of control and 103 % of control; (dose: 80.0 mg/kg/injection, schedule: Q01DX009 (ip), vehicle: saline with Tween-80) 110 % of control and 111 % of control and 91 % of control. The T/C (dose: 160.0 mg/kg/injection, schedule: Q01DX009 (ip), vehicle: saline with Tween-80) was 95 % of control.
Take `CCC(=O)c1cccc2c(C=O)c(Cl)n(C(=O)CC)c12`: the T/C reads like this: (dose: 50.0 mg/kg/injection, schedule: Q01DX001 (ip), vehicle: Klucel (hydroxypropylcellulose) (HPC)) 100 % of control; (dose: 100.0 mg/kg/injection, schedule: Q01DX001 (ip), vehicle: Klucel (hydroxypropylcellulose) (HPC)) 100 % of control; (dose: 200.0 mg/kg/injection, schedule: Q01DX001 (ip), vehicle: Klucel (hydroxypropylcellulose) (HPC)) 101 % of control.
For `CCN(CC)Cc1c(C)[nH]c2c(ccc3c2ccc2c(=O)c(CN(CC)CC)c(C)[nH]c23)c1=O`, the T/C under setting [10] is 93 % of control, the T/C under setting [11] is 91 % of control and the T/C under setting [12] is 96 % of control.
As for `CC(=O)N(CC1CNc2nc(N)[nH]c(=O)c2N1)c1ccc(C(=O)NC(CCC(=O)O)C(=O)O)cc1` (stereo not drawn), the T/C is 98 % of control under setting [9], 102 % of control under setting [13] and 95 % of control under setting [14].
On to `S=C(NCc1cccnc1)Nc1ccc(Cl)c(Cl)c1`, for which the T/C under setting [10] is 104 % of control, the T/C under setting [11] is 108 % of control and the T/C under setting [12] is 104 % of control.
Regarding `CN(c1ccccc1)c1cc2nc3ccccc3nc2cc1O`, the T/C runs as follows: under setting [4], 98 % of control; under setting [5], 91 % of control.
For `CCSC(=O)N1c2ccc(OC)cc2C=CC1C#N` (stereo not drawn), the T/C reads like this: (dose: 44.0 mg/kg/injection, schedule: Q01DX009 (ip), vehicle: saline with Tween-80) 119 % of control; under setting [1], 105 % of control; (dose: 66.0 mg/kg/injection, schedule: Q01DX009 (ip), vehicle: saline with Tween-80) 119 % of control; (dose: 100.0 mg/kg/injection, schedule: Q04DX003 (ip), vehicle: saline with Tween-80) 109 % of control; (dose: 150.0 mg/kg/injection, schedule: Q01DX009 (ip), vehicle: saline with Tween-80) 160 % of control; under setting [2], 108 % of control. The T/C by setting is: (dose: 200.0 mg/kg/injection, schedule: Q04DX003 (ip), vehicle: saline with Tween-80) 118 % of control; (dose: 266.0 mg/kg/injection, schedule: Q04DX003 (ip), vehicle: saline with Tween-80) 124 % of control; under setting [3], 118 % of control; (dose: 800.0 mg/kg/injection, schedule: Q01DX009 (ip), vehicle: saline with Tween-80) 96 % of control.
As for `CC(=O)/C=C1\C(=O)OCC1(C)C`, the T/C by setting is: under setting [13], 105 % of control; under setting [14], 108 % of control; (dose: 400.0 mg/kg/injection, schedule: Q04DX003 (ip), vehicle: saline) 111 % of control.
Turning to `CC(C)CC(NC(=O)C(Cc1ccccc1)NC(=O)CNC(=O)CNC(=O)C(N)Cc1ccc(O)cc1)C(=O)O` (stereo not drawn), the T/C (dose: 12.5 mg/kg/injection, schedule: Q01DX005 (ip), vehicle: water) is 110 % of control; the T/C (dose: 25.0 mg/kg/injection, schedule: Q01DX005 (ip), vehicle: water) is 103 % of control; the T/C (dose: 50.0 mg/kg/injection, schedule: Q01DX005 (ip), vehicle: water) is 95 % of control; the T/C (dose: 100.0 mg/kg/injection, schedule: Q01DX005 (ip), vehicle: water) is 98 % of control; the T/C (dose: 200.0 mg/kg/injection, schedule: Q01DX005 (ip), vehicle: water) was 100 % of control.
Regarding `CCCCCCC[CH2][Sn]([CH2]CCCCCCC)([CH2]CCCCCCC)[O]C(C)=O`, the T/C runs as follows: under setting [4], 97 % of control; under setting [5], 100 % of control; under setting [6], 94 % of control.
As for `CCCCCCCCC[N+]1(CC)CCCC1`, the T/C runs as follows: (dose: 6.25 mg/kg/injection, schedule: Q01DX009 (ip), vehicle: saline) 117 % of control; under setting [7], 117 % of control; under setting [8], 91 % of control.
For `CCOC(=O)C(=C\c1nncn1-c1ccccc1)/C=C(/O)c1ccccc1`, the T/C was 97 % of control (dose: 15.0 mg/kg/injection, schedule: Q01DX005 (ip), vehicle: Klucel (hydroxypropylcellulose) (HPC)); 93 % of control (dose: 30.0 mg/kg/injection, schedule: Q01DX005 (ip), vehicle: Klucel (hydroxypropylcellulose) (HPC)); 87 % of control (dose: 60.0 mg/kg/injection, schedule: Q01DX005 (ip), vehicle: Klucel (hydroxypropylcellulose) (HPC)).
For `O=C(O)C1CC(O)CN1` (stereo not drawn), the T/C runs as follows: (dose: 50.0 mg/kg/injection, schedule: Q01DX005 (ip), vehicle: saline) 106 % of control; (dose: 100.0 mg/kg/injection, schedule: Q01DX005 (ip), vehicle: saline) 106 % of control; (dose: 200.0 mg/kg/injection, schedule: Q01DX005 (ip), vehicle: saline) 110 % of control.
